Counter-ions that a name gives are not always drawn.
biological target: T1, JAK3 (Homo sapiens, UniProt P52333); assay: Assay for CD23 expression on Ramos B-cells stimulated by IL-4 (Table IV: ability to inhibit JAK3 activity); type: cell-based; details: tested under conditions described in Example 3 (so in the source)
T1 construct: The Ramos B-cell line was acquired from ATCC (ATCC Catalog No. CRL-1596); host or cells: Ramos B-cell line (human)
T1 sequence (P52333 1-1124): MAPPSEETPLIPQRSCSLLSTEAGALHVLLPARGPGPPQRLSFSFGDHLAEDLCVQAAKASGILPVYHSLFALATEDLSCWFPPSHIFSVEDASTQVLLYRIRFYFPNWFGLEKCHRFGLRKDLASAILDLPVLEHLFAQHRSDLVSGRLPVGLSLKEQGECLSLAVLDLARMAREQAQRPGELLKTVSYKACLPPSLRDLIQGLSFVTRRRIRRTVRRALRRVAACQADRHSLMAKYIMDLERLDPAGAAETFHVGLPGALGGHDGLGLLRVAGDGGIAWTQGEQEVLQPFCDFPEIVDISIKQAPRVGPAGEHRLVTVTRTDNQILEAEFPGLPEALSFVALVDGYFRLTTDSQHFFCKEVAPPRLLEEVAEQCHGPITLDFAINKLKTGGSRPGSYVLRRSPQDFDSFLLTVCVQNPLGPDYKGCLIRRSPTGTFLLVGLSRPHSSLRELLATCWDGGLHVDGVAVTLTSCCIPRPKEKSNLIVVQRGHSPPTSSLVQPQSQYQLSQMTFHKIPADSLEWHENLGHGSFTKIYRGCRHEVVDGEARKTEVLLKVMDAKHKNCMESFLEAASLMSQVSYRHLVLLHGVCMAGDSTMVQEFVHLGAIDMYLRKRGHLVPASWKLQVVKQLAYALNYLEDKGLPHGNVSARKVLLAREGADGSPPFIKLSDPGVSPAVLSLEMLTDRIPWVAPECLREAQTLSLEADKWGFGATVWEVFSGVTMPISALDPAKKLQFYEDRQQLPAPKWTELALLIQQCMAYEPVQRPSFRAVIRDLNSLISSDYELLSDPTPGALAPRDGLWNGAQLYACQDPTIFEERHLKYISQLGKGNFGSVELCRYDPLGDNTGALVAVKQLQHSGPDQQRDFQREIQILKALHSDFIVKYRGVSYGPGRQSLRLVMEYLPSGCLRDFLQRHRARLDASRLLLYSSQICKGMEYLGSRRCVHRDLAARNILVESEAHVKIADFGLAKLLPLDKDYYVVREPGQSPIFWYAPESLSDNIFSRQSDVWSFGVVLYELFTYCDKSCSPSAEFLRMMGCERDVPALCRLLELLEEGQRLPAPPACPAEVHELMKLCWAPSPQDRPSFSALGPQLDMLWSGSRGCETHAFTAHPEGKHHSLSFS
Source text: One means of assaying for such inhibition is detection of the effect of the 2,4-pyrimidinediamine compounds on the upregulation of downstream gene products. In the Ramos/IL4 assay, B-cells are stimulated with the cytokine Interleukin-4 (IL-4) leading to the activation of the JAK/Stat pathway through phosphorylation of the JAK family kinases, JAK1 and JAK3, which in turn phosphorylate and activate the transcription factor Stat-6. […] To study the effect of inhibitors (for example, the 2,4-substituted pyrimindinediamine compounds described herein) on the JAK1 and JAK3 kinases, human Ramos B cells are stimulated with human IL-4. 20 to 24 hours post stimulation, cells are stained for upregulation of CD23 and analyzed using FACS.
B-cells stimulated with cytokine Interleukin-4 (IL-4) activate the JAK/Stat pathway through phosphorylation of the JAK family kinases, JAK-1 and JAK-3, which in turn phosphorylate and activate the transcription factor Stat-6. […] To study the effect of inhibitors on the JAK family kinases, human Ramos B cells were stimulated with human IL-4 and the surface expression of CD23 was measured.
The day before the experiment, Ramos B-cells were diluted to 3.5×10^5 cells/mL to ensure that they were in a logarithmic growth phase.
Cells were spun down and suspended in RPMI with 5% serum. 5×10^4 cells were used per point in a 96-well tissue culture plate. Cells were pre-incubated with compound or DMSO (Sigma-Aldrich, St. Louis, Mo., Cat No. D2650) vehicle control for 1 hour in a 37° C. incubator. Cells were then stimulated with IL-4 (Peprotech Inc., Rocky Hill, N.J., Cat No. 200-04) for a final concentration of 50 units/mL for 20-24 hours. […] Detection was performed using a BD LSR I System Flow Cytometer, purchased from Becton Dickinson Biosciences of San Jose, Calif.
The compound designations in Table IV are consistent with those of Tables I-II above.

IC50 [µM] | Compound
< 0.5 | COC(=O)c1cnc(Nc2cc(C)c(C)c(C)c2)nc1Nc1ccc2oc(=O)[nH]c2c1 [Compound I-40, 4-(2-Oxo-2,3-dihydro-benzooxazol-5-ylamino)-2-(3,4,5-trimethyl-phenylamino)-pyrimidine-5-carboxylic acid methyl ester trifluoroacetate salt]
> 10 | COC(=O)c1cnc(Nc2ccc(F)c(OC)c2F)nc1Nc1ccc2oc(=O)[nH]c2c1 [Compound I-48, 2-(2,4-Difluoro-3-methoxy-phenylamino)-4-(2-oxo-2,3-dihydro-benzooxazol-5-ylamino)-pyrimidine-5-carboxylic acid methyl ester trifluoroacetate salt]
> 10 | COC(=O)c1cnc(Nc2ccc(C(N)=O)cc2)nc1Nc1ccc2oc(=O)[nH]c2c1 [Compound I-54, 2-(4-Carbamoyl-phenylamino)-4-(2-oxo-2,3-dihydro-benzooxazol-5-ylamino)-pyrimidine-5-carboxylic acid methyl ester trifluoroacetate salt]
> 10 | COC(=O)c1cnc(Nc2ccc(C)c(OC)c2)nc1Nc1ccc2oc(=O)[nH]c2c1 [Compound I-56, 2-(3-Methoxy-4-methyl-phenylamino)-4-(2-oxo-2,3-dihydro-benzooxazol-5-ylamino)-pyrimidine-5-carboxylic acid methyl ester trifluoroacetate salt]
> 10 | COC(=O)c1cnc(Nc2ccc(C)c(N(C)C)c2)nc1Nc1ccc2oc(=O)[nH]c2c1 [Compound I-57, 2-(3-Dimethylamino-4-methyl-phenylamino)-4-(2-oxo-2,3-dihydro-benzooxazol-5-ylamino)-pyrimidine-5-carboxylic acid methyl ester trifluoroacetate salt]
> 10 | COC(=O)c1cnc(Nc2cc(C)c(F)c(OC)c2)nc1Nc1ccc2oc(=O)[nH]c2c1 [Compound I-58, 2-(4-Fluoro-3-methoxy-5-methyl-phenylamino)-4-(2-oxo-2,3-dihydro-benzooxazol-5-ylamino)-pyrimidine-5-carboxylic acid methyl ester trifluoroacetate salt]
> 10 | COC(=O)c1cnc(Nc2cc(C)c(C)c(OC)c2)nc1Nc1ccc2oc(=O)[nH]c2c1 [Compound I-59, 2-(3-Methoxy-4,5-dimethyl-phenylamino)-4-(2-oxo-2,3-dihydro-benzooxazol-5-ylamino)-pyrimidine-5-carboxylic acid methyl ester trifluoroacetate salt]

The next lines start with the molecule.

Compound | IC50 [µM]
O=c1[nH]c2cc(Nc3nc(Nc4ccccc4)ncc3[N+](=O)[O-])ccc2o1 [Compound I-41, 5-(5-nitro-2-(phenylamino)pyrimidin-4-ylamino)benzo[d]oxazol-2(3H)-one trifluoroacetate salt] | 5 to 10
Cc1cc(Nc2ncc([N+](=O)[O-])c(Nc3ccc4oc(=O)[nH]c4c3)n2)cc(C)c1C [Compound I-42, 5-(5-nitro-2-(3,4,5-trimethylphenylamino)pyrimidin-4-ylamino)benzo[d]oxazol-2(3H)-one trifluoroacetate salt] | > 10
COc1c(F)ccc(Nc2ncc([N+](=O)[O-])c(Nc3ccc4oc(=O)[nH]c4c3)n2)c1F [Compound I-43, 5-(2-(2,4-difluoro-3-methoxyphenylamino)-5-nitropyrimidin-4-ylamino)benzo[d]oxazol-2(3H)-one trifluoroacetate salt] | > 10
COc1cc(Nc2ncc([N+](=O)[O-])c(Nc3ccc4oc(=O)[nH]c4c3)n2)ccc1C [Compound I-44, 5-(2-(3-methoxy-4-methylphenylamino)-5-nitropyrimidin-4-ylamino)benzo[d]oxazol-2(3H)-one trifluoroacetate salt] | > 10
Cc1ccc(Nc2ncc([N+](=O)[O-])c(Nc3ccc4oc(=O)[nH]c4c3)n2)cc1N(C)C [Compound I-45, 5-(2-(3-(dimethylamino)-4-methylphenylamino)-5-nitropyrimidin-4-ylamino)benzo[d]oxazol-2(3H)-one trifluoroacetate salt] | > 10
COc1cc(Nc2ncc([N+](=O)[O-])c(Nc3ccc4oc(=O)[nH]c4c3)n2)cc(C(F)(F)F)c1 [Compound I-47, 5-(2-(3-methoxy-5-(trifluoromethyl)phenylamino)-5-nitropyrimidin-4-ylamino)benzo[d]oxazol-2(3H)-one trifluoroacetate salt] | > 10
Cc1cc(Nc2ncc(C(=O)O)c(Nc3ccc4oc(=O)[nH]c4c3)n2)cc(C)c1C [Compound I-49, 4-(2-Oxo-2,3-dihydro-benzooxazol-5-ylamino)-2-(3,4,5-trimethyl-phenylamino)-pyrimidine-5-carboxylic acid trifluoroacetate salt] | > 10
COc1ccc(Nc2ncc(C)c(Nc3ccc4oc(=O)[nH]c4c3)n2)c(F)c1OC [Compound I-50, 5-[2-(2-Fluoro-3,4-dimethoxy-phenylamino)-5-methyl-pyrimidin-4-ylamino]-3H-benzooxazol-2-one] | < 0.5
COc1ccc(Nc2ncc(Cl)c(Nc3ccc4oc(=O)[nH]c4c3)n2)c(F)c1OC [Compound I-51, 5-(5-chloro-2-(2-fluoro-3,4-dimethoxyphenylamino)pyrimidin-4-ylamino)benzo[d]oxazol-2(3H)-one trifluoroacetate salt] | < 0.5
COc1cc(Nc2ncc(Cl)c(Nc3ccc4oc(=O)[nH]c4c3)n2)cc(C)c1C [Compound I-52, 5-(5-chloro-2-(3-methoxy-4,5-dimethylphenylamino)pyrimidin-4-ylamino)benzo[d]oxazol-2(3H)-one] | < 0.5
COCCOc1c(C)ccc(Nc2ncc(C)c(Nc3ccc4oc(=O)[nH]c4c3)n2)c1F [Compound I-53, 5-{2-[2-Fluoro-3-(2-methoxy-ethoxy)-4-methyl-phenylamino]-5-methyl-pyrimidin-4-ylamino}-3H-benzooxazol-2-one] | < 0.5
COC(=O)c1cnc(Nc2cc(OC)cc(C(F)(F)F)c2)nc1Nc1ccc2oc(=O)[nH]c2c1 [Compound I-55, 2-(3-Methoxy-5-trifluoromethyl-phenylamino)-4-(2-oxo-2,3-dihydro-benzooxazol-5-ylamino)-pyrimidine-5-carboxylic acid methyl ester trifluoroacetate salt] | > 10
NC(=O)c1ccc(Nc2ncc([N+](=O)[O-])c(Nc3ccc4oc(=O)[nH]c4c3)n2)cc1 [Compound I-60, 4-(5-nitro-4-(2-oxo-2,3-dihydrobenzo[d]oxazol-5-ylamino)pyrimidin-2-ylamino)benzamide trifluoroacetate salt] | > 10
COCCOc1c(C)ccc(Nc2ncc(F)c(Nc3ccc4oc(=O)[nH]c4c3)n2)c1F [Compound I-61, 5-(5-fluoro-2-(2-fluoro-3-(2-methoxyethoxy)-4-methylphenylamino)pyrimidin-4-ylamino)benzo[d]oxazol-2(3H)-one trifluoroacetate salt] | < 0.5
COCCOc1c(C)ccc(Nc2nccc(Nc3ccc4oc(=O)[nH]c4c3)n2)c1F [Compound I-62, 5-(2-(2-fluoro-3-(2-methoxyethoxy)-4-methylphenylamino)pyrimidin-4-ylamino)benzo[d]oxazol-2(3H)-one] | 0.5 to 5
